Laboratory results: patent publication US7772241B2, “Variolin derivatives and their use as antitumor agents” (Pharma Mar S.A., priority 2001, dated 2010)
Where two headings read alike, the source gives them in different places.

Tests used:
[1] = system: K-562; test: Inhibition of cells growth by colorimetric (SRB) assay, K-562
Procedure, shortened: (§1)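 Read-out is sulforhodamine B protein stain (OD 490 nm) after cold TCA fixation, following 48 h continuous exposure to samples spanning 10 to 10^−8 μg/ml.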

[2] = system: A-549; test: Inhibition of cells growth by colorimetric (SRB) assay, A-549; details: for GI50 / CC50: Homo sapiens, A549, 48 h
Procedure, shortened: as §1

[3] = system: SK-MEL-28; test: Inhibition of cells growth by colorimetric (SRB) assay, SK-MEL-28
Procedure, shortened: as §1

[4] = system: HT-29; test: Inhibition of cells growth by colorimetric (SRB) assay, HT-29; details: for GI50 / CC50: Homo sapiens, HT-29, 48 h
Procedure, shortened: as §1

[5] = system: LoVo; test: Inhibition of cells growth by colorimetric (SRB) assay, LoVo
Procedure, shortened: as §1

[6] = system: LoVo-Dox; test: Inhibition of cells growth by colorimetric (SRB) assay, LoVo-Dox
Procedure, shortened: as §1

[7] = system: DU-145; test: Inhibition of cells growth by colorimetric (SRB) assay, DU-145
Procedure, shortened: as §1

[8] = system: LNCaP; test: Inhibition of cells growth by colorimetric (SRB) assay, LNCaP
Procedure, shortened: as §1

[9] = system: SK-BR-3; test: Inhibition of cells growth by colorimetric (SRB) assay, SK-BR-3
Procedure, shortened: as §1

[10] = system: IGROV-1; test: Inhibition of cells growth by colorimetric (SRB) assay, IGROV-1
Procedure, shortened: as §1

[11] = system: IGROV-ET; test: Inhibition of cells growth by colorimetric (SRB) assay, IGROV-ET
Procedure, shortened: as §1

[12] = system: HeLa; test: Inhibition of cells growth by colorimetric (SRB) assay, HeLa
Description: (§2) The finality of these assays is to interrupt the growth of a “in vitro” tumor cell culture by means a continued exhibition of the cells to the sample to be testing.
(§3) This form of the assay employs 96 well cell culture microplates of 9 mm diameter (Faircloth, 1988; Mosmann, 1983). Most of the cell lines are obtained from American Type Culture Collection (ATCC) derived from different human cancer types.
(§4) Cells are maintained in RPMI 1640 10% FBS, supplemented with 0.1 g/l penicillin and 0.1 g/l streptomycin sulphate and then incubated at 37° C., 5% CO2 and 98% humidity. For the experiments, cells were harvested from subconfluent cultures using trypsin and resuspended in fresh medium before plating.
(§5) Cells are seeded in 96 well microtiter plates, at 5×10^3 cells per well in aliquots of 195 μl medium, and they are allowed to attach to the plate surface by growing in drug free medium for 18 hours. Afterward, samples are added in aliquots of 5 μl in a ranging from 10 to 10^−8 μg/ml, dissolved in DMSO/EtOH/PBS (0.5:0.5:99). After 48 hours exposure, the antitumor effect are measured by the SRB methodology: cells are fixed by adding 50 μl of cold 50% (wt/vol) trichloroacetic acid (TCA) and incubating for 60 minutes at 4° C. Plates are washed with deionized water and dried. One hundred μl of SRB solution (0.4% wt/vol in 1% acetic acid) is added to each microtiter well and incubated for 10 minutes at room temperature. Unbound SRB is removed by washing with 1% acetic acid. Plates are air dried and bound stain is solubilized with Tris buffer. Optical densities are read on a automated spectrophotometric plate reader at a single wavelength of 490 nm.
(§6) The values for mean +/−SD of data from triplicate wells are calculated. Some parameters for cellular responses can be calculated: GI=growth inhibition, TGI=total growth inhibition (cytostatic effect) and LC=cell killing (cytotoxic effect).

[13] = system: HeLa-APL; test: Inhibition of cells growth by colorimetric (SRB) assay, HeLa-APL
Description: as §2, §3, §4, §5, §6

[14] = system: PANC-1; test: Inhibition of cells growth by colorimetric (SRB) assay, PANC-1
Procedure, shortened: as §1

With `CSc1nccc(-c2c3cccnc3n3c(NC(C)=O)nccc23)n1` [Compound 69] the GI50 ([1]; Homo sapiens, K562, 48 h, read-out: K-562 GI50, SRB assay, 48 hours exposure) was 12.8 µM, the CC50 ([1]; Homo sapiens, K562, 48 h, read-out: K-562 LC50, SRB assay, 48 hours exposure) was 28.5 µM and the “K-562 TGI” value ([1]; SRB assay, 48 hours exposure) was 2.85E−05. It also gave a GI50 ([2]; read-out: A-549 GI50, SRB assay, 48 hours exposure) of 0.517 µM, a CC50 ([2]; read-out: A-549 LC50, SRB assay, 48 hours exposure) of 2.75 µM and a GI50 ([2]; read-out: GI50 A-549, SRB assay, 48 hours exposure) of 5.71 µM. The CC50 ([2]; read-out: LC50 A-549, SRB assay, 48 hours exposure) was 28.6 µM, the “A-549 TGI” value ([2]; SRB assay, 48 hours exposure) was 1.19E−06 and the “TGI A-549” value ([2]; SRB assay, 48 hours exposure) was 2.29E−05. For the same molecule, the GI50 ([3]; Homo sapiens, SK-MEL-28, 48 h, read-out: MEL-28 GI50, SRB assay, 48 hours exposure) was 2.19 µM, the CC50 ([3]; Homo sapiens, SK-MEL-28, 48 h, read-out: MEL-28 LC50, SRB assay, 48 hours exposure) was 16.4 µM and the “MEL-28 TGI” value ([3]; SRB assay, 48 hours exposure) was 6.51E−06. For the same molecule, the GI50 ([4]; read-out: GI50 HT-29, SRB assay, 48 hours exposure) was 14.3 µM, the GI50 ([4]; read-out: HT-29 GI50, SRB assay, 48 hours exposure) was 0.887 µM and the CC50 ([4]; read-out: HT-29 LC50, SRB assay, 48 hours exposure) was 28.5 µM. For the same molecule, the CC50 ([4]; read-out: LC50 HT-29, SRB assay, 48 hours exposure) was 28.6 µM, the “HT-29 TGI” value ([4]; SRB assay, 48 hours exposure) was 6.51E−06 and the “TGI HT-29” value ([4]; SRB assay, 48 hours exposure) was 2.86E−05. For the same molecule, the GI50 ([5]; Homo sapiens, LoVo, 48 h, read-out: LOVO GI50, SRB assay, 48 hours exposure) was 1.22 µM, the CC50 ([5]; Homo sapiens, LoVo, 48 h, read-out: LOVO LC50, SRB assay, 48 hours exposure) was 28.5 µM and the “LOVO TGI” value ([5]; SRB assay, 48 hours exposure) was 7.28E−06. For the same molecule, the GI50 ([6]; Homo sapiens, 48 h, read-out: LOVO-DOX GI50, SRB assay, 48 hours exposure) was 2.04 µM, the CC50 ([6]; Homo sapiens, 48 h, read-out: LOVO-DOX LC50, SRB assay, 48 hours exposure) was 28.5 µM and the “LOVO-DOX TGI” value ([6]; SRB assay, 48 hours exposure) was 9.79E−06. The GI50 ([7]; Homo sapiens, DU-145, 48 h, read-out: DU-145 GI50, SRB assay, 48 hours exposure) was 0.985 µM, the CC50 ([7]; Homo sapiens, DU-145, 48 h, read-out: DU-145 LC50, SRB assay, 48 hours exposure) was 23.7 µM and the “DU-145 TGI” value ([7]; SRB assay, 48 hours exposure) was 4.59E−06. The GI50 ([8]; Homo sapiens, LNCaP, 48 h, read-out: LN-caP GI50, SRB assay, 48 hours exposure) was 1.08 µM, the CC50 ([8]; Homo sapiens, LNCaP, 48 h, read-out: LN-caP LC50, SRB assay, 48 hours exposure) was 28.5 µM and the “LN-caP TGI” value ([8]; SRB assay, 48 hours exposure) was 4.77E−06. The GI50 ([9]; Homo sapiens, SK-BR-3, 48 h, read-out: SK-BR-3 GI50, SRB assay, 48 hours exposure) was 1.23 µM, the CC50 ([9]; Homo sapiens, SK-BR-3, 48 h, read-out: SK-BR-3 LC50, SRB assay, 48 hours exposure) was 24.8 µM and the “SK-BR-3 TGI” value ([9]; SRB assay, 48 hours exposure) was 6.25E−06. The GI50 ([10]; Homo sapiens, IGROV-1, 48 h, read-out: IGROV GI50, SRB assay, 48 hours exposure) was 2.13 µM, the CC50 ([10]; Homo sapiens, IGROV-1, 48 h, read-out: IGROV LC50, SRB assay, 48 hours exposure) was 28.5 µM and the “IGROV TGI” value ([10]; SRB assay, 48 hours exposure) was 8.53E−06. For the same molecule, the GI50 ([11]; Homo sapiens, 48 h, read-out: IGROV-ET GI50, SRB assay, 48 hours exposure) was 7.31 µM, the CC50 ([11]; Homo sapiens, 48 h, read-out: IGROV-ET LC50, SRB assay, 48 hours exposure) was 28.5 µM and the “IGROV-ET TGI” value ([11]; SRB assay, 48 hours exposure) was 2.18E−05. The GI50 ([12]; Homo sapiens, HeLa, 48 h, read-out: HELA GI50, SRB assay, 48 hours exposure) was 0.00716 µM, the “HELA TGI” value ([12]; SRB assay, 48 hours exposure) was 3.60E−08 and the GI50 ([13]; Homo sapiens, 48 h, read-out: HELA-APL GI50, SRB assay, 48 hours exposure) was 0.00594 µM. For the same molecule, the CC50 ([13]; Homo sapiens, 48 h, read-out: HELA-APL LC50, SRB assay, 48 hours exposure) was 0.38 µM, the “HELA-APL TGI” value ([13]; SRB assay, 48 hours exposure) was 2.45E−08 and the GI50 ([14]; Homo sapiens, PANC-1, 48 h, read-out: PANC-1 GI50, SRB assay, 48 hours exposure) was 4.99 µM. The CC50 ([14]; Homo sapiens, PANC-1, 48 h, read-out: PANC-1 LC50, SRB assay, 48 hours exposure) was 28.5 µM and the “PANC-1 TGI” value ([14]; SRB assay, 48 hours exposure) was 1.91E−05.
